Like-named read-outs stand apart in the source and are kept apart here.
Assays:
Format in all cases: in vivo
[1] = system: Italian ryegrass (Lolium multiflorum); test: Test B pre-/postemergence plant response
In short: (§1)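 Steps: plant seeds in loam soil–sand mix; spray soil preemergence, and in parallel spray 2–10 cm one- to two-leaf plants postemergence; hold ~10 days in greenhouse; visually rate injury against untreated controls (0 = no effect, 100 = complete control).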

kochia (Kochia scoparia) [2] = test: Test B pre-/postemergence plant response
In short: as §1

[3] = system: ragweed (common ragweed, Ambrosia elatior); test: Test B pre-/postemergence plant response
In short: as §1

kochia (Kochia scoparia) [4] = test: Test D postemergence plant response
In short: (§2)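 Visual scoring from 0 (no effect) to 100 (complete control), relative to controls, 13–15 days after treatment in the greenhouse. Compounds were applied postemergence at the 1- to 4-leaf stage (2–18 cm) to potted plants in peat-based medium.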

wild oat (Avena fatua) = test: Test D postemergence plant response
In short: as §2

[5] = system: Italian ryegrass (Lolium multiflorum); test: Test F pre-/postemergence plant response; details: scale 0 to 100; for pest or weed control at 16 g/ha / pest or weed control at 31 g/ha / pest or weed control at 62 g/ha / pest or weed control at 125 g/ha: Lolium multiflorum, read-out: Plant response rating, Ryegrass, Italian; for pest or weed control at 16 g/ha: 16 g ai/ha; for pest or weed control at 31 g/ha: 31 g ai/ha; for pest or weed control at 125 g/ha: 125 g ai/ha
In short: (§3)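 Plant response is a visual score from 0, meaning no effect, to 100, meaning complete control, assigned by comparison with untreated plants. Ratings were made 14 to 21 days after preemergence application to seeded silt loam or postemergence application to plants at the 1- to 4-leaf stage.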

kochia (Kochia scoparia) [6] = test: Test F pre-/postemergence plant response; details: scale 0 to 100; for pest or weed control at 16 g/ha / pest or weed control at 31 g/ha / pest or weed control at 62 g/ha / pest or weed control at 125 g/ha: Bassia scoparia, read-out: Plant response rating, Kochia; for pest or weed control at 16 g/ha: 16 g ai/ha; for pest or weed control at 31 g/ha: 31 g ai/ha; for pest or weed control at 125 g/ha: 125 g ai/ha
In short: as §3

[7] = system: nightshade (eastern black nightshade, Solanum ptycanthum); test: Test F pre-/postemergence plant response; details: scale 0 to 100
In short: as §3

[8] = system: palmer pigweed (Amaranthus palmeri); test: Test F pre-/postemergence plant response; details: scale 0 to 100; for pest or weed control at 16 g/ha / pest or weed control at 31 g/ha / pest or weed control at 62 g/ha / pest or weed control at 125 g/ha: Amaranthus palmeri, read-out: Plant response rating, Pigweed, Palmer
In short: as §3

[9] = system: waterhemp_RES1 (ALS & Triazine resistant common waterhemp, Amaranthus rudis); test: Test F postemergence plant response; details: scale 0 to 100
In short: (§4)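 Rated visually versus controls, 0 (no effect) to 100 (complete control), after 14–21 days in greenhouse. Compounds were sprayed postemergence on seedlings at 1- to 4-leaf stage, 2–18 cm tall.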

[10] = system: waterhemp_RES2 (ALS & HPPD resistant common waterhemp, Amaranthus rudis); test: Test F postemergence plant response; details: scale 0 to 100
In short: as §4

[11] = 31 g ai/ha, Postemergence, 0 to 100 scale, 0 no effect, 100 complete control
[12] = 125 g ai/ha, postemergence, 0 to 100 scale, 0 no effect, 100 complete control
[13] = Preemergence, 31 g ai/ha, 0 to 100 scale (0 no effect, 100 complete control)
[14] = Preemergence, 125 g ai/ha, 0 to 100 scale where 0 is no effect and 100 is complete control
[15] = 16 g ai/ha, scale 0 to 100 (0 no effect, 100 complete control)
[16] = 31 g ai/ha, scale 0 to 100 (0 no effect, 100 complete control)
[17] = 62 g ai/ha, scale 0 to 100, 0 no effect, 100 complete control
[18] = 125 g ai/ha, scale 0 to 100, 0 no effect, 100 complete control
[19] = 31 g ai/ha, Preemergence, 0 to 100 scale where 0 is no effect and 100 is complete control
[20] = Postemergence, 31 g ai/ha, 0 to 100 scale (0 no effect, 100 complete control)
[21] = Preemergence, 125 g ai/ha, 0 to 100 scale (0 no effect, 100 complete control)
[22] = post-emergence, 62 g ai/ha, Postemergence

Fc1ccc(Oc2ncc(Cl)cn2)c(-c2cc(C(F)F)on2)c1Cl [Compound 96]
Plant response rating, Ryegrass, Italian [1, 11]: 30
Plant response rating, Ryegrass, Italian [1, 12]: 60
Ryegrass, Italian plant response rating [1, 13]: 0
Plant response rating, Ryegrass, Italian [1, 14]: 0
Plant response rating, Kochia (kochia (Kochia scoparia) [2]; [11]): 70
Plant response rating, Kochia (kochia (Kochia scoparia) [2]; [12]): 100
Kochia plant response rating (kochia (Kochia scoparia) [2]; [13]): 50
Plant response rating, Kochia (kochia (Kochia scoparia) [2]; [14]): 70
Plant response rating, Ragweed [3, 11]: 50
Plant response rating, Ragweed [3, 12]: 60
Ragweed plant response rating [3, 13]: 0
Plant response rating, Ragweed [3, 14]: 0
Kochia plant response rating (kochia (Kochia scoparia) [4]; [15]): 25
Kochia plant response rating (kochia (Kochia scoparia) [4]; [16]): 60
Plant response rating, Kochia (kochia (Kochia scoparia) [4]; [17]): 85
Plant response rating, Kochia (kochia (Kochia scoparia) [4]; [18]): 100
Oat, Wild plant response rating (wild oat (Avena fatua); [15]): 15
Oat, Wild plant response rating (wild oat (Avena fatua); [16]): 20
Plant response rating, Oat, Wild (wild oat (Avena fatua); [17]): 20
Plant response rating, Oat, Wild (wild oat (Avena fatua); [18]): 20
Plant response rating, Ryegrass, Italian ([5]; 16 g ai/ha Postemergence): 0
Plant response rating, Ryegrass, Italian ([5]; 16 g ai/ha Preemergence): 0
Plant response rating, Ryegrass, Italian ([5]; 31 g ai/ha Postemergence): 0
Plant response rating, Ryegrass, Italian ([5]; 31 g ai/ha Preemergence): 0
Plant response rating, Ryegrass, Italian ([5]; 62 g ai/ha Postemergence): 0
Plant response rating, Ryegrass, Italian ([5]; 125 g ai/ha Postemergence): 10
Plant response rating, Ryegrass, Italian ([5]; 125 g ai/ha Preemergence): 30
Plant response rating, Ryegrass, Italian ([5]; Preemergence): 30
Plant response rating, Kochia (kochia (Kochia scoparia) [6]; 16 g ai/ha Postemergence): 65
Plant response rating, Kochia (kochia (Kochia scoparia) [6]; 16 g ai/ha Preemergence): 0
Plant response rating, Kochia (kochia (Kochia scoparia) [6]; 31 g ai/ha Postemergence): 75
Plant response rating, Kochia (kochia (Kochia scoparia) [6]; 31 g ai/ha Preemergence): 0
Plant response rating, Kochia (kochia (Kochia scoparia) [6]; 62 g ai/ha Postemergence): 75
Plant response rating, Kochia (kochia (Kochia scoparia) [6]; 125 g ai/ha Postemergence): 95
Plant response rating, Kochia (kochia (Kochia scoparia) [6]; 125 g ai/ha Preemergence): 90
Plant response rating, Kochia (kochia (Kochia scoparia) [6]; Preemergence): 65
Plant response rating, Nightshade ([7]; 16 g ai/ha Preemergence): 0
Plant response rating, Nightshade ([7]; 31 g ai/ha Preemergence): 0
Plant response rating, Nightshade ([7]; 125 g ai/ha Preemergence): 90
Plant response rating, Nightshade ([7]; Preemergence): 65
Plant response rating, Pigweed, Palmer ([8]; 16 g ai/ha Postemergence): 70
Plant response rating, Pigweed, Palmer ([8]; 16 g ai/ha Preemergence): 80
Plant response rating, Pigweed, Palmer ([8]; 31 g ai/ha Postemergence): 80
Plant response rating, Pigweed, Palmer ([8]; 31 g ai/ha Preemergence): 98
Plant response rating, Pigweed, Palmer ([8]; 62 g ai/ha Postemergence): 95
Plant response rating, Pigweed, Palmer ([8]; 125 g ai/ha Postemergence): 90
Plant response rating, Pigweed, Palmer ([8]; 125 g ai/ha Preemergence): 100
Plant response rating, Pigweed, Palmer ([8]; Preemergence): 100
Plant response rating, Waterhemp_RES1 ([9]; 16 g ai/ha Postemergence): 85
Plant response rating, Waterhemp_RES1 ([9]; 31 g ai/ha Postemergence): 90
Plant response rating, Waterhemp_RES1 ([9]; 62 g ai/ha Postemergence): 95
Plant response rating, Waterhemp_RES1 ([9]; 125 g ai/ha Postemergence): 95
Plant response rating, Waterhemp_RES2 ([10]; 16 g ai/ha Postemergence): 85
Plant response rating, Waterhemp_RES2 ([10]; 31 g ai/ha Postemergence): 90
Plant response rating, Waterhemp_RES2 ([10]; 62 g ai/ha Postemergence): 90
Plant response rating, Waterhemp_RES2 ([10]; 125 g ai/ha Postemergence): 95

Fc1cccc(Oc2ncc(Cl)cn2)c1-c1cc(C(F)F)no1 [Compound 144, 5-chloro-2-[2-[3-(difluoromethyl)-5-isoxazolyl]-3-fluorophenoxy]pyrimidine]
Plant response rating, Ryegrass, Italian [1, 19]: 0
Plant response rating, Ryegrass, Italian [1, 12]: 100
Plant response rating, Ryegrass, Italian [1, 20]: 20
Ryegrass, Italian plant response rating [1, 21]: 90
Plant response rating, Kochia (kochia (Kochia scoparia) [2]; [19]): 90
Plant response rating, Kochia (kochia (Kochia scoparia) [2]; [12]): 100
Plant response rating, Kochia (kochia (Kochia scoparia) [2]; [20]): 100
Kochia plant response rating (kochia (Kochia scoparia) [2]; [21]): 100
Plant response rating, Ragweed [3, 19]: 0
Plant response rating, Ragweed [3, 12]: 60
Plant response rating, Ragweed [3, 20]: 20
Ragweed plant response rating [3, 21]: 50
pest or weed control at 31 g/ha (kochia (Kochia scoparia) [4]; Bassia scoparia, post-emergence, 31 g ai/ha, scale 0 to 100 (0 no effect, 100 complete control), read-out: Kochia plant response rating): 100%
pest or weed control at 62 g/ha (kochia (Kochia scoparia) [4]; Bassia scoparia, post-emergence, 62 g ai/ha, scale 0 to 100, 0 no effect, 100 complete control, read-out: Plant response rating, Kochia): 100%
pest or weed control at 125 g/ha (kochia (Kochia scoparia) [4]; Bassia scoparia, post-emergence, 125 g ai/ha, scale 0 to 100, 0 no effect, 100 complete control, read-out: Plant response rating, Kochia): 100%
pest or weed control at 31 g/ha (wild oat (Avena fatua); Avena fatua, post-emergence, 31 g ai/ha, scale 0 to 100 (0 no effect, 100 complete control), read-out: Oat, Wild plant response rating): 0%
pest or weed control at 62 g/ha (wild oat (Avena fatua); Avena fatua, post-emergence, 62 g ai/ha, scale 0 to 100, 0 no effect, 100 complete control, read-out: Plant response rating, Oat, Wild): 5%
pest or weed control at 125 g/ha (wild oat (Avena fatua); Avena fatua, post-emergence, 125 g ai/ha, scale 0 to 100, 0 no effect, 100 complete control, read-out: Plant response rating, Oat, Wild): 10%
pest or weed control at 16 g/ha ([5]; post-emergence, Postemergence): 10%
pest or weed control at 31 g/ha ([5]; post-emergence, Postemergence): 20%
pest or weed control at 62 g/ha [5, 22]: 20%
pest or weed control at 125 g/ha ([5]; post-emergence, Postemergence): 40%
pest or weed control at 16 g/ha ([5]; pre-emergence, Preemergence): 0%
pest or weed control at 31 g/ha ([5]; pre-emergence, Preemergence): 0%
pest or weed control at 125 g/ha ([5]; pre-emergence, Preemergence): 100%
pest or weed control at 62 g/ha ([5]; pre-emergence, Preemergence): 40%
pest or weed control at 16 g/ha (kochia (Kochia scoparia) [6]; post-emergence, Postemergence): 95%
pest or weed control at 31 g/ha (kochia (Kochia scoparia) [6]; post-emergence, Postemergence): 95%
pest or weed control at 62 g/ha (kochia (Kochia scoparia) [6]; [22]): 95%
pest or weed control at 125 g/ha (kochia (Kochia scoparia) [6]; post-emergence, Postemergence): 95%
pest or weed control at 16 g/ha (kochia (Kochia scoparia) [6]; pre-emergence, Preemergence): 98%
pest or weed control at 31 g/ha (kochia (Kochia scoparia) [6]; pre-emergence, Preemergence): 100%
pest or weed control at 125 g/ha (kochia (Kochia scoparia) [6]; pre-emergence, Preemergence): 100%
pest or weed control at 62 g/ha (kochia (Kochia scoparia) [6]; pre-emergence, Preemergence): 100%
pest or weed control at 16 g/ha ([7]; Solanum, pre-emergence, 16 g ai/ha Preemergence, read-out: Plant response rating, Nightshade): 98%
pest or weed control at 31 g/ha ([7]; Solanum, pre-emergence, 31 g ai/ha Preemergence, read-out: Plant response rating, Nightshade): 98%
pest or weed control at 125 g/ha ([7]; Solanum, pre-emergence, 125 g ai/ha Preemergence, read-out: Plant response rating, Nightshade): 100%
pest or weed control at 62 g/ha ([7]; Solanum, pre-emergence, Preemergence, read-out: Plant response rating, Nightshade): 100%
pest or weed control at 16 g/ha ([8]; post-emergence, 16 g ai/ha Postemergence): 90%
pest or weed control at 31 g/ha ([8]; post-emergence, 31 g ai/ha Postemergence): 100%
pest or weed control at 62 g/ha ([8]; post-emergence, 62 g ai/ha Postemergence): 100%
pest or weed control at 125 g/ha ([8]; post-emergence, 125 g ai/ha Postemergence): 100%
pest or weed control at 16 g/ha ([8]; pre-emergence, 16 g ai/ha Preemergence): 100%
pest or weed control at 31 g/ha ([8]; pre-emergence, 31 g ai/ha Preemergence): 100%
pest or weed control at 125 g/ha ([8]; pre-emergence, 125 g ai/ha Preemergence): 100%
pest or weed control at 62 g/ha ([8]; pre-emergence, Preemergence): 100%
Plant response rating, Waterhemp_RES1 ([9]; 16 g ai/ha Postemergence): 90
Plant response rating, Waterhemp_RES1 ([9]; 31 g ai/ha Postemergence): 95
Plant response rating, Waterhemp_RES1 ([9]; 62 g ai/ha Postemergence): 100
Plant response rating, Waterhemp_RES1 ([9]; 125 g ai/ha Postemergence): 100
Plant response rating, Waterhemp_RES2 ([10]; 16 g ai/ha Postemergence): 98
Plant response rating, Waterhemp_RES2 ([10]; 31 g ai/ha Postemergence): 100
Plant response rating, Waterhemp_RES2 ([10]; 62 g ai/ha Postemergence): 100
Plant response rating, Waterhemp_RES2 ([10]; 125 g ai/ha Postemergence): 100

Source: US10131652B2, “Pyrimidinyloxy benzene derivatives as herbicides” (E. I. DU PONT DE NEMOURS AND COMPANY, priority 2014, dated 2018)
